Data reported in patent US11160767B2, “4,4′-trans-dihydroxystilbene for use in treating cancer” (The George Washington University, a Congressionally …, priority 2017, dated 2021).

How the values were obtained:
[1] = mouse, in vivo
Method: Xenograft mouse models. […] In xenograft studies, HCT116 (3×10^6 cells) and IGROV3/CP2 (5×10^6 cells) suspended in 100 μl of phosphate buffered saline (PBS, pH 7.4) were injected subcutaneously into the lower flank of the mice. Testing compounds were dissolved in DMSO/Tween 80/saline (10:10:80; v/v/v) buffer and were used to treat animals through intraperitoneal (i.p.) injection. […] The body weight of animals was measured throughout the study. Tumor diameters were measured with digital calipers, and the tumor volume in mm^3 was calculated by the formula: Volume=(width)^2×length/2.
HCT116 cells (5×10^6) were injected subcutaneously in nude mice and grown to approximately 100 mm^3 in volume. […] To study the preclinical toxicity of DHS, samples of hearts, livers, spleens, lung, and kidneys were collected on Day 38 and sections were stained for histological examination.

RRM2 [2] = target: T1, RRM2 (Homo sapiens, UniProt P31350); assay: Ubiquitination assay; assay type: cell-based; conditions: HCT116 cells, with MG-132 pre-treatment
T1 construct: endogenous in cells; host or cells: HCT116
T1 sequence (P31350 1-389): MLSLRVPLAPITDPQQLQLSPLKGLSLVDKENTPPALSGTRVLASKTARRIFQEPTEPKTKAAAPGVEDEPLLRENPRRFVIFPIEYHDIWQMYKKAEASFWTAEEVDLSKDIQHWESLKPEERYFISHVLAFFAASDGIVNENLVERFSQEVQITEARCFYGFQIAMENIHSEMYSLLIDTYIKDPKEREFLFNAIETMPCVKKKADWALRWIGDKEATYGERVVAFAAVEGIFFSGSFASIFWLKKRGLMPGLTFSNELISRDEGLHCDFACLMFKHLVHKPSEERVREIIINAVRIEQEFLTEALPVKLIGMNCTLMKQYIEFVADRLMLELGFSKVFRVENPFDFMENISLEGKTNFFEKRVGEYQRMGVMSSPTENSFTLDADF
Method: It was next investigated whether treatment with DHS leads to reduced levels of RRM2 through the proteasome degradation pathway. […] To confirm whether degradation of RRM1 is dependent on RRM2, RRM1 or RRM2 expression was knocked down by treatment with siRNAs and resultant protein amounts were detected. […] Next, a ubiquitination assay with MG-132 pre-treatment was performed to determine whether a ubiquitination reaction is involved in DHS-mediated RRM2 degradation. […] According to the literature, Cyclin F is the E3 ligase that ubiquitinates RRM2 (D'Angiolella et al., 2012). Thus, the amount of RRM2 in cells was determined after knockdown of Cyclin F by siRNA. […] Cell viability after DHS exposure was also investigated in cells in which either RRM2 or Cyclin F expression was knocked down by siRNA.

plasmid DNA = assay: Incubation with plasmid DNA, UV absorption; assay type: binding
From the text: (§1) In addition, resveratrol has been previously reported to interact with DNA grooves (Usha et al., 2006). […] A similar result with And-1, RRM1, and RRM2 was also observed in DHS resistant HCT116 cells (data not shown).

U2OS = assay: In vitro cytotoxicity (SRB assay), U2OS; assay type: cell-based; conditions: Homo sapiens, 72 hours
Method: Cell lines and cell culture. HCT116, U205, PANC-1, MDA-231 cell lines were purchased from the American Type Culture Collection (Rockville, Md., US). Cells were cultured in the DMEM medium (Lonza, Basel, Switzerland) containing 10% fetal bovine serum (Gibco, Grand Island, N.Y., US), 100 Units/ml penicillin, 100 Units/mL streptomycin, […] L-glutamine (Gibco, Grand Island, N.Y., US) at 37° C. in a humidified atmosphere with 5% CO2.
In vitro cytotoxicity assays. […] SRB assay (Vichai and Kirtikara, 2006) was performed and the absorbance at 510 nm was read with a plate reader. The proliferation rate was calculated according to the Manufacturer's instruction. The IC50 value for each compound was determined from dose-effect relationship using the CompuSyn software (version 1.0.1; CompuSyn, Inc, Paramus, N.J.) (Chou, 2006). Cell proliferating doubling time was monitored over a period of 72 hours.

RRM2 [3] = target: T1, RRM2; assay: Thermal shift assay in HCT116 cells, RRM2; assay type: cell-based
Method: To investigate binding of DHS to RRM1 and RRM2, a thermal shift assay was performed in HCT116 cells treated with DMSO (vehicle), resveratrol, DHS, gemcitabine, or hydroxyurea (Hu). Gemcitabine is known to bind RRM1 (Plunkett et al., 1995 and Chen et al., 2011), and Hu has been reported to bind RRM2 (Thelander et al., 1985). […] DHS stabilized RRM2 protein in a dose responsive manner (5 to 20 μM DHS; FIG. 11A). To rule out nonspecific effects of DHS on RRM2, an in vitro thermal shift assay was conducted. Purified RRM1 and RRM2 were mixed and then incubated with DHS or Hu for 4 hours before performing the assay.

HCT116 cells [4] = assay: BrdU incorporation by FACS; assay type: cell-based, human; conditions: reduced from 46.6%, 1 to 20 μM DHS
From the text: To test whether DHS can repress DNA replication, BrdU incorporation was examined using an immunofluorescent assay. […] BrdU incorporation was tracked by fluorescence-activated cell sorting (FACS).

HCT116 cells [5] = assay: dNTP amount in treated cells; assay type: cell-based, human
From the text: The effect of DHS on dNTP synthesis was investigated by measuring the amount of dNTPs in DHS-treated HCT116 cells.

HCT116 cells [6] = assay: Cell-cycle assay; assay type: cell-based, human; conditions: 10 μM
Method: A cell-cycle assay was conducted to study whether DHS would affect cell-cycle progression.

HCT116 cells [7] = assay: Clonogenic colony formation assay; assay type: cell-based, human; conditions: 0 to 50 μM
Method: To confirm the cell killing effect of DHS, a clonogenic colony formation assay was conducted. […] The effect of DHS on growth of cancer cell lines was analyzed using The NCI Development Therapeutics Program (DTP).

[8] = tested on: phosphorylated histone 2AX; assay: γH2AX immunostaining; assay type: cell-based, human; conditions: HCT116 cells, 10 μM for 12 hours
HCT116 cells [9] = assay: Comet assay; assay type: cell-based, human; conditions: 2.5 μM for 24 hours
Method: Comet assay. HCT116 cells were treated with DHS for 0.5 or 24 hours. Afterward, the cells were irradiated with X-rays at a dose of 20 Gy. An aliquot of 80 μL cell suspension were mixed with 400 μL 1.2% low melting point agarose and plated on Fisherfinest microscope slide (Thermo Scientific, Pittsburgh, Pa., US), which had already been layered with 120 μL 1% agarose gel. Cells were then lysed and DNA was electrophoretically separated. The gels were neutralized before staining with 60 μL of 5 μM SYBR green. The shape of the stained DNA mass in at least 50 cells in each sample was analyzed with OpenComet software (MA, US).
To investigate whether inhibition of DNA replication by DHS can trigger DNA damage, the DNA damage markers phosphor-Chk1 (pChk1, Serine 345) and phosphor-Chk2 (pChk2, Threonine 68) were analyzed in DHS-treated HCT116 cells. […] A comet assay was next used to test if DNA double strand breaks are induced by DHS.

Topoisomerase II = Topoisomerase II decatenation assay; assay type: biochemical
From the text: as §1

UV absorption on incubation with plasmid DNA (DNA binding) (plasmid DNA): increased UV absorption
RRM2 levels in thermal shift assay (binding) (RRM2 [3]): binds to RRM2
Topoisomerase II activity (decatenation of kDNA) (Topoisomerase II): inhibits Topoisomerase II activity
Compound: Oc1ccc(/C=C/c2ccc(O)cc2)cc1 [DHS, 4,4′-trans-dihydroxystilbene]
Histology, hearts, livers, lung, and kidneys [1]: no obvious damage
Histology, spleens [1]: Minor damage
Ubiquitinated RRM2 (RRM2 [2]): ubiquitinated RRM2 was increased by DHS treatment
IC50 (U2OS): 1230 ± 730 nM
BrdU incorporation (HCT116 cells [4]): 9.52%
dNTP synthesis (HCT116 cells [5]): inhibited synthesis of dATP, dCTP, dGTP, and dTTP
Effect on cell-cycle progression (HCT116 cells [6]): robust S-phase arrest
Colony formation (HCT116 cells [7]): stronger suppression effect on HCT116 cell colony formation than resveratrol
Levels of γH2AX [8]: Increased levels of phosphorylated histone 2AX
DNA double strand breaks (lengths of tail moments) (HCT116 cells [9]): caused significant DNA double strand breaks
